Test results published in US10112928B2, “Inhibitors of SYK” (Hoffmann-La Roche Inc., priority 2012, dated 2018).
Like-named read-outs stand apart in the source and are kept apart here.

Legend:
[1] = biological target: recombinant human SYK360-635 (Spleen Tyrosine Kinase) (Homo sapiens (Human), UniProt P43405); assay: SYK kinase assay (33P ATP incorporation into biotinylated peptide); type: biochemical; settings: purified truncated SYK aa 360-635, 20 μM ATP; read-out: Syk_IC50
Protocol: Determination of IC50 of Spleen Tyrosine Kinase (SYK) Inhibition:
SYK kinase assay is a standard kinase assay adapted to a 96 well plate format. This assay is performed in 96-well format for IC50 determination with […] which represented 10 half log dilutions and a 40 μL reaction volume. The assay measures the incorporation of radiolabeled ^33P γATP into an N-terminally biotinylated peptide substrate, derived from naturally occurring phosphoacceptor consensus sequence (Biotin-11aa DY*E). Phosphorylated products were detected upon termination of reactions with EDTA and the addition of Streptavidin coated beads.
final concentration: 50 mM HEPES pH7.5
BSA: Bovine Serum Albumin Fraction V, fatty acid free (Roche Diagnostics GmbH, Cat. No. 9100221) diluted to a final concentration of 0.1%
Assay Dilution Buffer (ADB): 50 mM HEPES, 0.1 mM EGTA, 0.1 mM Na Vanadate, 0.1 mM β-glycerophosphate, 10 mM MgCl2, 1 mM DTT, 0.1% BSA, pH 7.5
Bead wash buffer: 10 g/L PBS (Phosphate buffered saline) with 2M NaCl+1% phosphoric acid.
DMSO and the mixture was incubated for 10 min at RT.
The kinase reaction was initiated by the addition of 10 μL 4× substrate cocktail containing the DYE peptide substrate [0 or 5 μM], ATP [20 μM] and ^33PγATP [2 μCi/rxn]. After incubation at 30° C. for 15 min, the reaction was terminated by the transfer of […] pf the reaction sample to a 96 well 0.65 μm Millipore MADVNOB membrane/plate containing 200 μL 5 mM EDTA and 20% Streptavidine coated beads in PBS.
The unbound radionucleotides were washed under vacuum with 3×250 μL 2M NaCl; 2×250 μL 2M NaCl+1% phosphoric acid; 1×250 μL H2O. After the last wash membrane/plates were transferred to an adaptor plate, heat dried for 15 min at 60° C., and 50 μL scintillation cocktail was added to each well and 4 h later the amount of radioactivity was counted in a top counter.

[2] = tested on: CD69 up-regulation on B-cell lymphocytes (CD20+) stimulated with anti-human IgM; assay: B Cell CD69 Up-Regulation Assay in Human Whole Blood; type: cell-based; settings: read-out: Human whole blood IC50
Protocol: B Cell CD69 Up-Regulation Assay in Human Whole Blood
Human Blood was collected from healthy volunteers into Vacutainers (BD Biosciences, San Jose, Calif.) containing sodium heparin. Test compound was suspended in DMSO and nine half-log serial dilutions were made. The concentration of […] in the assay was 0.5%. 100 μL whole blood was pre-incubated with compound for 30 min and then stimulated with goat F(ab′)2 anti-human IgM (50 μg/mL, Southern Biotech) for 20 h. At the end of the 20 hour incubation, samples were incubated with fluorochrome-conjugated antibodies, PE mouse anti-human CD20 and APC Mouse anti-human CD69 (BD Biosciences), for 30 minutes. Samples were then lysed with Lyse solution (BD) and washed with PBS containing 2% fetal bovine serum (FBS). Fluorescent signals were acquired on flow cytometer LSR II (BD) and data were analyzed by Flow Jo. The percentage of activated (CD69hi) B-cell lymphocytes (CD20+) were determined using un-stimulated (negative control) and stimulated (positive control) wells as reference guidelines. The percentage inhibition was calculated and an IC50 curve was constructed using GraphPad Prism software with sigmoidal curve fitting.

[3] = human whole blood, anti-IgM stimulation 20 h, CD69hi CD20+ B cells

| SMILES | IC50 [1] [µM] | IC50 [2, 3] [µM] | IC50 ([2]; Homo sapiens, 20 h) [µM] |
| --- | --- | --- | --- |
| Cc1cccc(Nc2cc(Oc3ccccc3)nnc2C(N)=O)n1 [Compound I-1, 4-(6-methylpyridin-2-ylamino)-6-phenoxypyridazine-3-carboxamide] | 1.32 |  |  |
| Cc1cccc(Nc2cc(Oc3cccc(C#N)c3)nnc2C(N)=O)n1 [Compound I-2, 6-(3-cyanophenoxy)-4-(6-methylpyridin-2-ylamino)pyridazine-3-carboxamide] | 0.965 |  |  |
| Cc1cccc(Nc2cc(Oc3cccc(C(C)(C)N)c3)nnc2C(N)=O)n1 [Compound I-3, 6-(3-(2-aminopropan-2-yl)phenoxy)-4-(6-methylpyridin-2-ylamino)pyridazine-3-carboxamide] | 2.24 |  |  |
| Cc1cccc(Nc2cc(Oc3cccnc3)nnc2C(N)=O)n1 [Compound I-5, 4-(6-methylpyridin-2-ylamino)-6-(pyridin-3-yloxy)pyridazine-3-carboxamide] | 1.5 |  |  |
| Cc1cccc(Nc2cc(Oc3ccccc3C#N)nnc2C(N)=O)n1 [Compound I-6, 6-(2-cyanophenoxy)-4-(6-methylpyridin-2-ylamino)pyridazine-3-carboxamide] | 0.385 |  |  |
| CCc1ccccc1Oc1cc(Nc2cccc(C)n2)c(C(N)=O)nn1 [Compound I-7, 6-(2-ethylphenoxy)-4-(6-methylpyridin-2-ylamino)pyridazine-3-carboxamide] | 0.473 |  |  |
| Cc1cccc(Nc2cc(Oc3ccccc3C)nnc2C(N)=O)n1 [Compound I-8, 4-(6-methylpyridin-2-ylamino)-6-(o-tolyloxy)pyridazine-3-carboxamide] | 0.373 |  | > 5 |
| Cc1cccc(Nc2cc(Oc3ccc(Cl)cc3C#N)nnc2C(N)=O)n1 [Compound I-9, 6-(4-chloro-2-cyanophenoxy)-4-(6-methylpyridin-2-ylamino)pyridazine-3-carboxamide] | 1.41 |  |  |
| Cc1cccc(Nc2cc(Oc3ccccc3C3CC3)nnc2C(N)=O)n1 [Compound I-10, 6-(2-cyclopropylphenoxy)-4-(6-methylpyridin-2-ylamino)pyridazine-3-carboxamide] | 2.18 |  |  |
| NC(=O)c1n[nH]c(=O)cc1Nc1cccc(C2CC2)n1 [Compound I-11, 4-(6-cyclopropyl-pyridin-2-ylamino)-6-oxo-1,6-dihydro-pyridazine-3-carboxylic acid amide] | 0.225 | > 5 |  |
| Cc1ccc(Nc2cc(OCCN)nnc2C(N)=O)nc1C [Compound I-13, 6-(2-aminoethoxy)-4-(5,6-dimethylpyridin-2-ylamino)pyridazine-3-carboxamide] |  | > 50 |  |
| Cc1cc(C)cc(Nc2cc(Cl)nnc2C(N)=O)c1 [Compound I-14, 6-chloro-4-(3,5-dimethylphenylamino)pyridazine-3-carboxamide] | 0.124 | > 50 |  |
| Cc1ccc(Nc2cc(NC(CN)CC(C)C)nnc2C(N)=O)nc1C(C)C (stereo not shown) [Compound I-15, 6-(1-aminomethyl-3-methyl-butylamino)-4-(6-isopropyl-5-methyl-pyridin-2-ylamino)-pyridazine-3-carboxylic acid amide] | 0.002 | 0.931 |  |
| CC(C)(C)c1cccc(Nc2cc(NCCN)nnc2C(N)=O)n1 [Compound I-16, 6-(2-aminoethylamino)-4-(6-tert-butylpyridin-2-ylamino)pyridazine-3-carboxamide] | 0.013 | 0.603 |  |
| CC(C)(C)c1cccc(Nc2cc(NCC3(N)CC3)nnc2C(N)=O)n1 [Compound I-19, 6-((1-aminocyclopropyl)methylamino)-4-(6-tert-butylpyridin-2-ylamino)pyridazine-3-carboxamide] | 0.135 | 6.02 |  |
| Cc1cccc(Nc2nc(CCCN)ncc2C(N)=O)c1 [Compound I-22, 2-(3-amino-propyl)-4-m-tolylamino-pyrimidine-5-carboxylic acid amide] | 2.54 | > 5 |  |

Second part, led by results:

| IC50 [1] [µM] | IC50 [2, 3] [µM] | SMILES | IC50 ([2]; Homo sapiens, 20 h) [µM] |
| --- | --- | --- | --- |
|  | 0.573 | CC(C)(C#N)c1cccc(Nc2cc(NCCN)nnc2C(N)=O)n1 [Compound I-21, 6-(2-aminoethylamino)-4-(6-(2-cyanopropan-2-yl)pyridin-2-ylamino)pyridazine-3-carboxamide] |  |
|  | 2.06 | CC(C)(O)c1cccc(Nc2cc(NCCN)nnc2C(N)=O)n1 [Compound I-23, 6-(2-aminoethylamino)-4-(6-(2-hydroxypropan-2-yl)pyridin-2-ylamino)pyridazine-3-carboxamide] |  |
| 3.98 | > 5 | Cc1cc(C)nc(Nc2cc(NCCN)nnc2C(N)=O)n1 [Compound I-24, 6-(2-aminoethylamino)-4-(4,6-dimethylpyrimidin-2-ylamino)pyridazine-3-carboxamide] |  |
|  | 0.052 | NCCNc1cc(Nc2cccc(C(F)(F)F)n2)c(C(N)=O)nn1 [Compound I-25, 6-(2-aminoethylamino)-4-(6-(trifluoromethyl)pyridin-2-ylamino)pyridazine-3-carboxamide] |  |
|  | 0.287 | Cc1ccc(Nc2cc(NCCN)nnc2C(N)=O)nc1N(C)C [Compound I-27, 6-(2-aminoethylamino)-4-(6-(dimethylamino)-5-methylpyridin-2-ylamino)pyridazine-3-carboxamide] |  |
|  | 0.358 | CC(C)(C)c1nccc(Nc2cc(NCCN)nnc2C(N)=O)n1 [Compound I-28, 6-(2-aminoethylamino)-4-(2-tert-butylpyrimidin-4-ylamino)pyridazine-3-carboxamide] |  |
|  | 1.8 | COC(C)(C)c1cccc(Nc2cc(NCCN)nnc2C(N)=O)n1 [Compound I-29, 6-(2-aminoethylamino)-4-(6-(2-methoxypropan-2-yl)pyridin-2-ylamino)pyridazine-3-carboxamide] |  |
| 0.0418 | 0.548 | Cc1cccc(Nc2cc(N[C@@H]3CCCC[C@@H]3N)ccc2C(N)=O)n1 [Compound I-30, 4-((1R,2S)-2-amino-cyclohexylamino)-2-(6-methyl-pyridin-2-ylamino)-benzamide] |  |
| 0.00925 | 1.5 | COc1nc(Nc2cc(NCCN)nnc2C(N)=O)ccc1C(C)C [Compound I-31, 6-(2-aminoethylamino)-4-(5-isopropyl-6-methoxypyridin-2-ylamino)pyridazine-3-carboxamide] |  |
| 0.0124 | 0.566 | CC(C)Oc1cccc(Nc2cc(NCCN)nnc2C(N)=O)n1 [Compound I-33, 6-(2-aminoethylamino)-4-(6-isopropoxypyridin-2-ylamino)pyridazine-3-carboxamide] |  |
